What is called Ki is the dissociation constant of the complex between target and ligand, obtained from inhibition or displacement. High values mean lower affinity, low ones higher affinity. In general, IC50 refers to the point on the concentration scale where inhibition reaches its midpoint.

The target of one test is Carbonic anhydrase 9 (Homo sapiens, UniProt Q16790).
Test [1] has as its system T47D. As to the kind of experiment: Antiproliferative activity against human T47D cells assessed as cell growth inhibition incubated for 4 hrs under hypoxia condition by MTT colorimetric assay. The test is classed as functional, cell-based.
In test [2] the test system is MCF7. Briefly: Antiproliferative activity against human MCF7 cells assessed as cell growth inhibition incubated for 4 hrs under normoxia condition by MTT colorimetric assay. The format is functional, cell-based. Conditions: MCF7, 4 h.
Test [3] deals with T47D. As to the kind of experiment: Antiproliferative activity against human T47D cells assessed as cell growth inhibition incubated for 4 hrs under normoxia condition by MTT colorimetric assay. The format is functional, cell-based. A general note: Formazan colour is commonly taken as a measure of viable cells.
The test system of test [4] is MCF7. As to the kind of experiment: Antiproliferative activity against human MCF7 cells assessed as cell growth inhibition incubated for 4 hrs under hypoxia condition by MTT colorimetric assay. The test is classed as functional, cell-based. As to conditions: MCF7, 4 h.

Description for Carbonic anhydrase 9: Inhibition of human carbonic anhydrase 9 assessed as inhibition constant incubated for 15 mins prior to testing by phenol red based stopped-flow CO2 hydration assay

`NS(=O)(=O)c1ccccc1NCCC(=O)c1ccccc1`: the Ki on Carbonic anhydrase 9 came to 313 nM.
`NS(=O)(=O)c1ccc(NNCCC(=O)c2ccccc2)cc1` came in with a Ki at Carbonic anhydrase 9 of 82.5 nM.
Still for that read-out and setting: the result for `NS(=O)(=O)c1ccc(CCNCCC(=O)c2ccccc2)cc1` reads 87.9 nM.
In turn, `NS(=O)(=O)c1cccc(NCCC(=O)c2ccccc2)c1` registered a Ki at Carbonic anhydrase 9 of 75.7 nM.
As to `NS(=O)(=O)c1ccc(C(=O)NNCCC(=O)c2ccccc2)cc1`, at Carbonic anhydrase 9, the Ki was found to be 45.3 nM.
Same read-out and setting: the result for `NS(=O)(=O)c1ccc(NCC/C(=N\O)c2ccccc2)cc1` reads 53.8 nM.
Still for that read-out and setting: the result for `NS(=O)(=O)c1ccccc1NCCC(=O)c1ccc2ccccc2c1` reads 945 nM.
Regarding `NS(=O)(=O)c1cccc(NCCC(=O)c2ccc3ccccc3c2)c1`, the inhibitory constant (Ki) at Carbonic anhydrase 9 came to 38.7 nM.
Turning to `NS(=O)(=O)c1ccc(C(=O)NNCCC(=O)c2ccc3ccccc3c2)cc1`, at Carbonic anhydrase 9, the affinity corresponds to a Ki of 36.3 nM.
Molecule `NS(=O)(=O)c1ccc(NCCC(=O)c2ccccc2)cc1` displayed a Ki at Carbonic anhydrase 9 of 51.5 nM.
Turning to `NS(=O)(=O)c1ccc(NCC/C(=N/CCO)c2ccccc2)cc1`, the IC50 in the test with T47D [1] is 10900 nM; with MCF7 [2], 29300 nM; in the test on T47D [3] it was 43100 nM; in the test with MCF7 [4] it was 5700 nM. Besides, the Ki at Carbonic anhydrase 9 came out at 10.2 nM.
`NS(=O)(=O)c1ccc(NNCCC(=O)c2ccc3ccccc3c2)cc1` showed a Ki on Carbonic anhydrase 9 of 66.7 nM.
With `NS(=O)(=O)c1ccc(NCCC(=O)c2ccc3ccccc3c2)cc1`, the IC50 was 19000 nM in the test with T47D [1], 55100 nM in the test with MCF7 [2], more than 100000 nM in the test with T47D [3] and 7500 nM in the test on MCF7 [4]. In addition, the Ki at Carbonic anhydrase 9 worked out at 9.4 nM.
For the molecule `COc1cccc2c1C(=O)c1c(O)c3c(c(O)c1C2=O)C[C@@](O)(C(=O)CO)C[C@@H]3O[C@H]1C[C@H](N)[C@H](O)[C@H](C)O1` [DOXORUBICIN], the IC50 in the test on T47D [1] was 3800 nM; with T47D [3], 3200 nM.

Values taken from ChEMBL document CHEMBL5113396, “Development of 4-((3-oxo-3-phenylpropyl)amino)benzenesulfonamide derivatives utilizing tail/dual-tail approaches as novel carbonic anhydrase inhibitors” (Eur J Med Chem, 2022).
